Measurements: ChEMBL document CHEMBL1158105, “Triterpene saponins from clematis mandshurica” (J Nat Prod, 2006)

Molecular target: T1, Prostaglandin G/H synthase 2 (Mus musculus, UniProt Q05769)
T1 sequence (Q05769 whole entry): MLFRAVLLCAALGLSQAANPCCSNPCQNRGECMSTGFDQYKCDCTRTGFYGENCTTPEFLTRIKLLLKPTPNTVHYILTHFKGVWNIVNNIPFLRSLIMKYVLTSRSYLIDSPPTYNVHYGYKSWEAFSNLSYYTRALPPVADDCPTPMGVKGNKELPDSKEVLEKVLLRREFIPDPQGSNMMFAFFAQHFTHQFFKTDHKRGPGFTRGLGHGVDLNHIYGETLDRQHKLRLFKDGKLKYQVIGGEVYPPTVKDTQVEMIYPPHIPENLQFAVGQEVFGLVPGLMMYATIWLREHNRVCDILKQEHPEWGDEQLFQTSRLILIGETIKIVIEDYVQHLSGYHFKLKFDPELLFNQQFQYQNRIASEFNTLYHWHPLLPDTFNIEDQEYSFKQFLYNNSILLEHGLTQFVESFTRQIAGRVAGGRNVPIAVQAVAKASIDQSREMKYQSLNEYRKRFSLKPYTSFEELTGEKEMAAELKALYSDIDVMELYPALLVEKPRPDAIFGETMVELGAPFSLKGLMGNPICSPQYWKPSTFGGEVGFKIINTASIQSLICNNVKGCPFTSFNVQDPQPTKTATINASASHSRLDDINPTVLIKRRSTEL
Experiment: Inhibition of LPS-induced COX2 activity in C57BL/6J mouse peritoneal macrophages by RIA

IC50 | SMILES
2580 nM | COc1cc(/C=C/C(=O)O[C@H]2[C@H](O[C@@H]3[C@@H](O)[C@H](O[C@@H]4CO[C@@H](O[C@@H]5[C@@H](O)[C@H](C)O[C@@H](O[C@H]6[C@H](O[C@H]7CC[C@]8(C)[C@H]9CC=C%10[C@@H]%11CC(C)(C)CC[C@]%11(C(=O)O[C@@H]%11O[C@H](CO[C@@H]%12O[C@H](CO)[C@@H](O[C@@H]%13O[C@@H](C)[C@H](O)[C@@H](O)[C@H]%13O)[C@H](O)[C@H]%12O)[C@@H](O)[C@H](O)[C@H]%11O)CC[C@@]%10(C)[C@]9(C)CC[C@H]8C7(C)C)OC[C@H](O)[C@@H]6O)[C@@H]5O)[C@H](O)[C@@H]4O)O[C@H](CO)[C@H]3O)O[C@H](CO[C@@H]3O[C@@H](C)[C@H](O)[C@@H](O)[C@H]3O)[C@@H](O)[C@@H]2O)ccc1O [CLEMATOMANDSHURICA SAPONIN B]
2660 nM | COc1ccc(/C=C/C(=O)O[C@@H]2[C@@H](O)[C@H](O[C@@H]3[C@@H](O)[C@H](O[C@@H]4CO[C@@H](O[C@@H]5[C@@H](O)[C@H](C)O[C@@H](O[C@H]6[C@H](O[C@H]7CC[C@]8(C)[C@H]9CC=C%10[C@@H]%11CC(C)(C)CC[C@]%11(C(=O)O[C@@H]%11O[C@H](CO[C@@H]%12O[C@H](CO)[C@@H](O[C@@H]%13O[C@@H](C)[C@H](O)[C@@H](O)[C@H]%13O)[C@H](O)[C@H]%12O)[C@@H](O)[C@H](O)[C@H]%11O)CC[C@@]%10(C)[C@]9(C)CC[C@H]8C7(C)C)OC[C@H](O)[C@@H]6O)[C@@H]5O)[C@H](O)[C@@H]4O)O[C@H](CO)[C@H]3O)O[C@H](CO[C@@H]3O[C@@H](C)[C@H](O)[C@@H](O)[C@H]3O)[C@H]2O)cc1O [CLEMATOMANDSHURICA SAPONIN A]
